# Measured values published in patent US20040019043A1, “Thiomolybdate analogues and uses thereof” (priority 2002, published 2004).
# Marks after values point to notes of the source that are not given here.
# Tests used:
# [1] = Chemical Stability Data for Analogs
# [2] = test system: Lewis Lung carcinoma (3LL) cells; assay: In Vivo 3LL Lewis Lung Carcinoma: Primary Tumor Growth; settings: 3LL s.c. in female C57/BL mice; TM and CHTM 50 mg/kg po by gavage from day after inoculation; cyclophosphamide 170 mg/kg s.c. every 6 days from day 3
# Procedure: The tumor model used was 3LL JF in C57BL/6 mice. […] The test compound is administered daily for 11-25 days.
# (§1) Animals are followed by weighing, palpation and measurement of tumor size. […] A positive control compound, for example cyclophosphamide at 170 mg/kg/injection is given every 6 days. Results computed include mean animal weight, tumor size, tumor weight and survival time. For confirmed therapeutic activity, the test composition should be tested in two multi-dose assays. Female C57/BL mice were inoculated with 1×10^6 Lewis Lung carcinoma (3LL) cells subcutaneously in the middle of the back. […] Cyclophosphamide (170 mg/kg given every 6 days subcutaneously beginning on day 3 after tumor cell inoculation) was used as a control. Tumor volumes and animal weights were measured 2×/week and the animals euthanized when the volume of the tumors in the control group reached an average of 2000 mm^3. The ratio (T/C) of the tumor volumes in the treated group (T) to the control group (C) were determined. Terminal cardiac bleeds were obtained and analyzed for red blood cell concentration (hematocrit, HCT).
# [3] = Animal weight and hematocrit in 3LL tumor-bearing mice
# Procedure: as §1
# [4] = After 10 days, Oven to room conditions
molecule,measurement,setting,value
"C[N+](C)(C)Cc1ccccc1.C[N+](C)(C)Cc1ccccc1.[S]=[Mo](=[S])([S-])[S-] [Trimethylbenzylammonium, Tetrathiomolybdate, bis(benzyltrimethylammonium)]",% remaining,[1]; [4],94%
"C[N+](C)(C)CCCCC[N+](C)(C)C [pentane-1,5-bis(trimethylammonium), Tetrathiomolybdate, pentane-1,5-bis(trimethylammonium)]",% remaining,[1]; [4],86%
"C[N+](C)(C)CCCC[N+](C)(C)C [butane-1,4-bis(trimethylammonium)]",% remaining,[1]; [4],40%
O=P1(N(CCCl)CCCl)NCCCO1 (stereo not shown) [Cyclophosphamide],T/C (ratio of tumor volumes in treated group to control group),[2],0.74
same,MOUSE WEIGHT % of initial,"[3]; 3LL tumor-bearing female C57/BL mice, same dosing as T/C",105%
same,"HCT (hematocrit, red blood cell concentration)","[3]; terminal cardiac bleeds, normal is 45%",40%
"C[N+](C)(C)CCCCCC[N+](C)(C)C.[S]=[Mo](=[S])([S-])[S-] [hexane-1,6-bis(trimethylammonium), Tetrathiomolybdate, hexane-1,6-bis(trimethylammonium)]",% remaining,"[1]; 7 days, 74-77% RH, RT",94%
Ethylenebis(trimethylammonium),% remaining,[1]; [4],40%
"CCn1cc[n+](C)c1.CCn1cc[n+](C)c1.[S]=[Mo](=[S])([S-])[S-] [1-ethyl-3-methyl-1H-imidazolium, Tetrathiomolybdate, bis(1-ethyl-3-methyl-1H-imidazolium)]",% remaining,[1]; [4],75%
"C[N+]1(C)CCCC1.C[N+]1(C)CCCC1.[S]=[Mo](=[S])([S-])[S-] [1,1-dimethylpyrrolidinium, Tetrathiomolybdate, bis(1,1-dimethylpyrrolidinium)]",% remaining,[1]; [4],70%
"CC[N+](CC)(CC)c1ccccc1.CC[N+](CC)(CC)c1ccccc1.[S]=[Mo](=[S])([S-])[S-] [Triethylphenylammonium, Tetrathiomolybdate, bis(triethylphenyl ammonium)]",% remaining,[1]; [4],76%
"C[N+](C)(Cc1ccccc1)c1ccccc1.C[N+](C)(Cc1ccccc1)c1ccccc1.[S]=[Mo](=[S])([S-])[S-] [bis(benzylphenyldimethylammonium), Tetrathiomolybdate, bis(benzylphenyldimethylammonium)]",% remaining,"[1]; 7 days, 74-77% RH, RT",45%
"C[N+](C)(C)c1ccccc1.C[N+](C)(C)c1ccccc1.[S]=[Mo](=[S])([S-])[S-] [Trimethylphenylammonium, Tetrathiomolybdate, bis(phenyltrimethylammonium)]",% remaining,"[1]; 7 days, 74-77% RH, RT",98%
same,% remaining,[1]; [4],85%
"C[N+](C)(C)CC1CC1.C[N+](C)(C)CC1CC1.[S]=[Mo](=[S])([S-])[S-] [bis(cyclopropylmethyltrimethylammonium), Tetrathiomolybdate, bis(cyclopropylmethyltrimethyl ammonium)]",% remaining,"[1]; 7 days, 74-77% RH, RT",86%
"Cc1cc[n+](C)cc1 [1,4-dimethylpyridinium, Tetrathiomolybdate, bis(1,4-dimethylpyridinium)]",% remaining,[1]; [4],32%
"[NH4+].[NH4+].[SH-].[SH-].[S]=[Mo]=[S] [Ammonium, ammonium tetrathiomolybdate]",T/C (ratio of tumor volumes in treated group to control group),[2],0.59
same,% remaining,"[1]; *9 days, different study, Oven to room conditions",*48%
same,"HCT (hematocrit, red blood cell concentration)","[3]; mouse, in vivo",35%
same,MOUSE WEIGHT % of initial,"[3]; mouse, in vivo",93%*
"CC[N+](C)(CC)CC.CC[N+](C)(CC)CC.[S]=[Mo](=[S])([S-])[S-] [Methyltriethylammonium, Tetrathiomolybdate, bis(triethylmethyl ammonium)]",% remaining,[1]; [4],63%
"C=C[N+](C)(C)C.C=C[N+](C)(C)C.[S]=[Mo](=[S])([S-])[S-] [bis(vinyltrimenthyammonium), Tetrathiomolybdate, bis(vinyltrimethyl ammonium)]",% remaining,"[1]; 7 days, 74-77% RH, RT",72%
"C[N+](C)(C)CCO [Choline, Tetrathiomolybdate, bis(choline)]",% remaining,[1]; [4],62%
same,"HCT (hematocrit, red blood cell concentration)","[3]; mouse, in vivo",35%
same,MOUSE WEIGHT % of initial,"[3]; mouse, in vivo",103%
